Measured values reported in patent US8030498B2, “Benzoylpyrazole compounds and herbicides containing them” (Ishihara Sangyo Kaisha, Ltd., priority 2005, dated 2011).

Columns and labels:
velvetleaf = test: Test Example 2: soil application on the day after sowing, growth inhibition rate, velvetleaf; type: in vivo, Abutilon theophrasti MEDIC.; conditions: 250 g/ha active ingredient, observed on 19th to 24th day; for inhibition at 250 g/ha: Abutilon theophrasti
Outline: (§1)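 Pre-emergence soil treatment: one day post-sowing in upland soil, compound formulations at set active-ingredient rates were applied in 500 L/ha water. Visual rating of growth inhibition (0% untreated-equivalent to 100% complete kill) followed on days 19–24 after application.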

wheat = test: Test Example 2: soil application on the day after sowing, growth inhibition rate, wheat; type: in vivo, Triticum spp.; conditions: 250 g/ha active ingredient, observed on 19th to 24th day; for inhibition at 250 g/ha: Triticum aestivum
Source text: Upland field soil was put into a 1/170,000 hectare pot, and seeds of various plants (barnyardgrass, crabgrass, greenfoxtail, redroot pigweed, prickly sida, velvetleaf, rice, wheat, corn and soybean) were sown. On the day after sowing, wettable powders or emulsifiable concentrates of the compounds of the present invention prepared in accordance with a conventional preparation method, were weighed so that the active ingredients became the prescribed amounts, and diluted with water in an amount corresponding to 500 liter per 1 hectare, followed by soil application with a small sprayer. On the 19th to 24th day after the application, the state of growth of the respective plants was visually observed, and the herbicidal effect was evaluated in accordance with a growth inhibition rate (%) of from 0 (equivalent to the non-treated area) to 100% (complete kill).

[1] = system: crabgrass (Digitaria sanguinalis L.); test: Test Example 1: foliar treatment, growth inhibition rate, crabgrass; type: in vivo; conditions: 31 g/ha active ingredient, visually observed 17th to 23rd day after application; for pest or weed control at 31 g/ha: Digitaria sanguinalis
Outline: (§2)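 Visual scoring of growth inhibition, 0% (untreated) to 100% (complete kill), on days 17–23 following post-emergence spray of formulated compound in water (500 L/ha, 0.1 vol % spreader); plants treated at set leaf stages, e.g. corn 2.0–3.5, wheat 1.7–3.4.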

[2] = system: soybean (Glycine max Merr.); test: Test Example 1: foliar treatment, growth inhibition rate, soybean; type: in vivo; conditions: 31 g/ha active ingredient, visually observed 17th to 23rd day after application
Outline: as §2

crabgrass = test: Test Example 2: soil application on the day after sowing, growth inhibition rate, crabgrass; type: in vivo, Digitaria sanguinalis L.; conditions: 250 g/ha active ingredient, observed on 19th to 24th day; for inhibition at 250 g/ha: Digitaria sanguinalis
Outline: as §1

[3] = system: greenfoxtail (Setaria viridis L.); test: Test Example 1: foliar treatment, growth inhibition rate, greenfoxtail; type: in vivo; conditions: 31 g/ha active ingredient, visually observed 17th to 23rd day after application; for pest or weed control at 31 g/ha: Setaria viridis
Outline: (§3)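 Seeds were sown in upland field soil in pots. At the target leaf stage (corn 2.0–3.5; greenfoxtail 1.0–3.0; rice 1.0–2.5; wheat 1.7–3.4), the formulated compound, diluted at a water volume of 500 L/ha with 0.1 vol % spreader, was applied by small sprayer. Plants were rated by eye on days 17–23.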

prickly sida = test: Test Example 2: soil application on the day after sowing, growth inhibition rate, prickly sida; type: in vivo, Sida spinosa L.; conditions: 250 g/ha active ingredient, observed on 19th to 24th day; for inhibition at 250 g/ha: Sida spinosa
Outline: as §1

greenfoxtail = test: Test Example 2: soil application on the day after sowing, growth inhibition rate, greenfoxtail; type: in vivo, Setaria viridis L.; conditions: 250 g/ha active ingredient, observed on 19th to 24th day; for inhibition at 250 g/ha: Setaria viridis
Outline: as §1

redroot pigweed = test: Test Example 2: soil application on the day after sowing, growth inhibition rate, redroot pigweed; type: in vivo, Amaranthus retroflexus L.; conditions: 250 g/ha active ingredient, observed on 19th to 24th day; for inhibition at 250 g/ha: Amaranthus retroflexus
Outline: as §1

[4] = system: barnyardgrass (Echinochloa crus-galli L.); test: Test Example 1: foliar treatment, growth inhibition rate, barnyardgrass; type: in vivo; conditions: 31 g/ha active ingredient, visually observed 17th to 23rd day after application; for pest or weed control at 31 g/ha: Echinochloa crus-galli
Outline: as §3

corn = test: Test Example 2: soil application on the day after sowing, growth inhibition rate, corn; type: in vivo, Zea mays L.; conditions: 250 g/ha active ingredient, observed on 19th to 24th day; for inhibition at 250 g/ha: Zea mays
Outline: as §1

[5] = system: prickly sida (Sida spinosa L.); test: Test Example 1: foliar treatment, growth inhibition rate, prickly sida; type: in vivo; conditions: 31 g/ha active ingredient, visually observed 17th to 23rd day after application
Outline: as §2

wheat (Triticum spp.) = test: Test Example 1: foliar treatment, growth inhibition rate, wheat; type: in vivo; conditions: 31 g/ha active ingredient, visually observed 17th to 23rd day after application; for pest or weed control at 31 g/ha: Triticum
Outline: as §3

[6] = system: redroot pigweed (Amaranthus retroflexus L.); test: Test Example 1: foliar treatment, growth inhibition rate, redroot pigweed; type: in vivo; conditions: 31 g/ha active ingredient, visually observed 17th to 23rd day after application
Outline: as §2

corn (Zea mays L.) = test: Test Example 1: foliar treatment, growth inhibition rate, corn; type: in vivo; conditions: 31 g/ha active ingredient, visually observed 17th to 23rd day after application; for pest or weed control at 31 g/ha: Zea mays
Outline: as §3

rice = test: Test Example 2: soil application on the day after sowing, growth inhibition rate, rice; type: in vivo, Oryza sativa L.; conditions: 250 g/ha active ingredient, observed on 19th to 24th day; for inhibition at 250 g/ha: Oryza sativa
Outline: as §1

soybean = test: Test Example 2: soil application on the day after sowing, growth inhibition rate, soybean; type: in vivo, Glycine max Merr.; conditions: 250 g/ha active ingredient, observed on 19th to 24th day; for inhibition at 250 g/ha: Glycine max
Outline: as §1

[7] = system: velvetleaf (Abutilon theophrasti MEDIC.); test: Test Example 1: foliar treatment, growth inhibition rate, velvetleaf; type: in vivo; conditions: 31 g/ha active ingredient, visually observed 17th to 23rd day after application; for pest or weed control at 31 g/ha: Abutilon theophrasti
Outline: as §3

rice (Oryza sativa L.) = test: Test Example 1: foliar treatment, growth inhibition rate, rice; type: in vivo; conditions: 31 g/ha active ingredient, visually observed 17th to 23rd day after application; for pest or weed control at 31 g/ha: Oryza sativa
Outline: as §3

barnyardgrass = test: Test Example 2: soil application on the day after sowing, growth inhibition rate, barnyardgrass; type: in vivo, Echinochloa crus-galli L.; conditions: 250 g/ha active ingredient, observed on 19th to 24th day; for inhibition at 250 g/ha: Echinochloa crus-galli
Outline: as §1

SMILES | Growth inhibition rate (%) Velvetleaf (velvetleaf) [%] | Growth inhibition rate (%) Wheat (wheat) [%] | Growth inhibition rate (%) Crabgrass [1] [%] | Growth inhibition rate (%) Soybean [2] [%] | Growth inhibition rate (%) Crabgrass (crabgrass) [%] | Growth inhibition rate (%) Greenfoxtail [3] [%] | Growth inhibition rate (%) Prickly sida (prickly sida) [%] | Growth inhibition rate (%) Greenfoxtail (greenfoxtail) [%] | Growth inhibition rate (%) redroot pigweed (redroot pigweed) [%] | Growth inhibition rate (%) Barnyardgrass [4] [%] | Growth inhibition rate (%) Corn (corn) [%] | Growth inhibition rate (%) Prickly sida [5] [%] | Growth inhibition rate (%) Wheat (wheat (Triticum spp.)) [%] | Growth inhibition rate (%) redroot pigweed [6] [%] | Growth inhibition rate (%) Corn (corn (Zea mays L.)) [%] | Growth inhibition rate (%) Rice (rice) [%] | Growth inhibition rate (%) Soybean (soybean) [%] | Growth inhibition rate (%) Velvetleaf [7] [%] | Growth inhibition rate (%) Rice (rice (Oryza sativa L.)) [%] | Growth inhibition rate (%) Barnyardgrass (barnyardgrass) [%] | also measured
CCSC(=O)Oc1c(C(=O)c2ccc(S(C)(=O)=O)c(CC#N)c2C)cnn1C [compound 83] | 40 | 0 | 100 | 95 | 95 | 100 | 70 | 40 | 90 | 100 | 0 | 70 | 0 | 80 | 0 | 50 | 0 | 95 | 80 | 80 | 
CCn1ncc(C(=O)c2ccc(S(C)(=O)=O)c(C(=O)OC)c2C)c1OC(=O)SC(C)(C)C [compound 91] | 70 | 0 | 98 | 98 | 95 | 98 | 95 | 60 | 100 | 95 | 0 | 75 | 0 | 98 | 20 | 80 | 30 | 95 | 90 | 90 | 
CCOc1c(S(C)(=O)=O)ccc(C(=O)c2cnn(C)c2OC(=O)SCC)c1C [compound 36] | 50 | 0 | 98 |  | 100 | 100 | 60 | 100 | 100 | 100 | 0 | 100 | 50 | 100 | 10 | 80 | 30 | 100 | 70 | 100 | 
CCSC(=O)Oc1c(C(=O)c2ccc(S(C)(=O)=O)c(C(=O)OC)c2C)cnn1C [Compound No. 1, 5-(ethylthio)carbonyloxy-1-methylpyrazol-4-yl 3-(methoxycarbonyl)-2-methyl-4-(methylsulfonyl)phenyl ketone] |  |  |  |  |  |  |  |  |  |  |  | 70 |  | 100 |  |  |  |  |  |  | inhibition at 250 g/ha (velvetleaf): 60%; inhibition at 250 g/ha (wheat): 10%; pest or weed control at 31 g/ha [1]: 80%; inhibition at 250 g/ha (crabgrass): 100%; pest or weed control at 31 g/ha [3]: 100%; inhibition at 250 g/ha (prickly sida): 60%; inhibition at 250 g/ha (greenfoxtail): 100%; inhibition at 250 g/ha (redroot pigweed): 100%; pest or weed control at 31 g/ha [4]: 90%; inhibition at 250 g/ha (corn): 0%; pest or weed control at 31 g/ha (wheat (Triticum spp.)): 0%; pest or weed control at 31 g/ha (corn (Zea mays L.)): 10%; inhibition at 250 g/ha (rice): 95%; inhibition at 250 g/ha (soybean): 75%; pest or weed control at 31 g/ha [7]: 100%; pest or weed control at 31 g/ha (rice (Oryza sativa L.)): 80%; inhibition at 250 g/ha (barnyardgrass): 100%
CCSC(=O)Oc1c(C(=O)c2ccc(S(C)(=O)=O)c(OCCOC)c2C)cnn1C [Compound No. 55, 5-(ethylthio)carbonyloxy-1-methylpyrazol-4-yl 3-(2-methoxyethoxy)-2-methyl-4-(methylsulfonyl)phenyl ketone] |  |  |  | 95 |  |  |  |  |  |  |  |  |  | 95 |  |  |  |  |  |  | inhibition at 250 g/ha (velvetleaf): 95%; inhibition at 250 g/ha (wheat): 0%; pest or weed control at 31 g/ha [1]: 100%; inhibition at 250 g/ha (crabgrass): 100%; pest or weed control at 31 g/ha [3]: 100%; inhibition at 250 g/ha (prickly sida): 70%; inhibition at 250 g/ha (greenfoxtail): 100%; inhibition at 250 g/ha (redroot pigweed): 100%; pest or weed control at 31 g/ha [4]: 100%; inhibition at 250 g/ha (corn): 0%; pest or weed control at 31 g/ha (wheat (Triticum spp.)): 10%; pest or weed control at 31 g/ha (corn (Zea mays L.)): 40%; inhibition at 250 g/ha (rice): 70%; inhibition at 250 g/ha (soybean): 0%; pest or weed control at 31 g/ha [7]: 100%; pest or weed control at 31 g/ha (rice (Oryza sativa L.)): 60%; inhibition at 250 g/ha (barnyardgrass): 100%
CCSC(=O)Oc1c(C(=O)c2ccc(S(C)(=O)=O)c(CC(=O)OC)c2C)cnn1C [compound 64] | 30 | 0 |  |  | 95 | 65 | 60 | 50 | 80 | 100 | 0 | 60 | 0 | 80 | 0 | 70 | 0 | 85 | 70 | 90 | 
CCSC(=O)Oc1c(C(=O)c2ccc(S(C)(=O)=O)c(C3=NOCC3)c2C)cnn1C [Compound No. 39, 5-(ethylthio)carbonyloxy-1-methylpyrazol-4-yl 2-methyl-4-(methylsulfonyl)-3-(4,5-dihydroisoxazol-3-yl)phenyl ketone] |  |  |  | 95 |  |  |  |  |  |  |  |  |  | 80 |  |  |  |  |  |  | inhibition at 250 g/ha (velvetleaf): 60%; inhibition at 250 g/ha (wheat): 0%; pest or weed control at 31 g/ha [1]: 90%; inhibition at 250 g/ha (crabgrass): 100%; pest or weed control at 31 g/ha [3]: 95%; inhibition at 250 g/ha (prickly sida): 70%; inhibition at 250 g/ha (greenfoxtail): 80%; inhibition at 250 g/ha (redroot pigweed): 100%; pest or weed control at 31 g/ha [4]: 95%; inhibition at 250 g/ha (corn): 10%; pest or weed control at 31 g/ha (wheat (Triticum spp.)): 40%; pest or weed control at 31 g/ha (corn (Zea mays L.)): 0%; inhibition at 250 g/ha (rice): 80%; inhibition at 250 g/ha (soybean): 0%; pest or weed control at 31 g/ha [7]: 90%; pest or weed control at 31 g/ha (rice (Oryza sativa L.)): 95%; inhibition at 250 g/ha (barnyardgrass): 70%
